Reference: patent US20160120861A1, “Compositions and Methods for Treating an Arrhythmia with an Opioid Antagonist” (PURDUE PHARMA L.P., priority 2013, published 2016)

Assay: QT study following E14 principles: ECG effects (QTcI) of BTDS alone, BTDS with naltrexone, naltrexone and moxifloxacin relative to placebo
Details: for Mean change from baseline (QTcI): 24-hr ECG at steady state
Protocol: A QT study following E14 principles regarding design, conduct, analysis, and interpretation was conducted with the following objectives
Primary: • To evaluate the ECG effects of 10, 40, and 80 mcg/hr buprenorphine delivered by a Buprenorphine Transdermal System (BTDS) alone, or by BTDS dosed with naltrexone tablets, relative to placebo in healthy male and female subjects
To evaluate the ECG effects of moxifloxacin relative to placebo (assay sensitivity)
To evaluate the ECG effects of BTDS+Naltrexone (NTX) vs. BTDS alone
To evaluate the ECG effects of naltrexone alone vs. placebo
The study was a randomized, double-blind, placebo and positive controlled, parallel group study with the following parameters:
• Healthy male or female subjects aged 18 to 55 years, inclusive • Heart rate between 45-85 bpm • No clinically significant medical history or disease • Subjects with personal or family history of prolonged QT interval or abnormal cardiovascular condition excluded
60 subjects/treatment group
• 1) BTDS alone (Butrans® 5, 10, 20, 40, 80 mcg/hr) • 2) Moxifloxacin (400 mg single doses on Days 6, 13, 17) • 3) Placebo • 4) Naltrexone alone (NTX 50 mg q12 h days 4-17) • 5) BTDS+Naltrexone (BTDS 10, 20, 40, 80 mcg/hr with NTX 50 mg q12 h days 4-17)
BTDS or matching placebo patches were applied according to a dose-escalation and dose tapering scheme
24-hr ECG were collected at steady-state for each BTDS dose level at Days 6 (10 mcg/hr), 13 (40 mcg/hr) and 17 (80 mcg/hr).
Continuous 24-hr 12-lead digital Holter ECG collections were performed as follows: • Two 24-hour baseline recordings (Days −2 and −1) • Three 24-hour periods on-treatment for Days 6 (10 mcg/hr), 13 (40 mcg/hr) and 17 (80 mcg/hr).
ECGs were extracted at 13 time points (0, 0.5, 1, 1.5, 2, 2.5, 3, 4, 7, 10, 13, 18, 23.5 hours) over each 24-hour ECG recording period.
Subjects rested supine for at least 10 minutes prior to each nominal ECG extraction time and activity was limited for the prior 2 hours.
4 ECGs were extracted and quantified at each nominal time point by a blinded central ECG laboratory.
The primary QT correction for heart rate was QTcI. 104 baseline ECGs were used to determine subject-specific HR correction.
Placebo-corrected change from baseline QTcI means and 90% CIs were calculated using a mixed effects general linear model with covariates for time, treatment, time by treatment interaction, and sex.

| Compound | >60 ms inc, N (%) (both, human, in vivo) | New >480 ms, N (%) (both, human, in vivo) | New >500 ms, N (%) (both, human, in vivo) | QTcI results (positive control, assay sensitivity) (in vivo) | >30-60 ms inc, N (%) (Day 6, QTcI, healthy subjects) | >60 ms inc, N (%) (Day 6, QTcI, healthy subjects) | New >480 ms, N (%) (Day 6, QTcI, healthy subjects) | New >500 ms, N (%) (Day 6, QTcI, healthy subjects) | Mean change from baseline (QTcI) (Day 6, healthy subjects) [ms] | >30-60 ms inc, N (%) (Day 13, QTcI, healthy subjects) | >60 ms inc, N (%) (Day 13, QTcI, healthy subjects) | New >480 ms, N (%) (Day 13, QTcI, healthy subjects) | New >500 ms, N (%) (Day 13, QTcI, healthy subjects) | Mean change from baseline (QTcI) (Day 13, healthy subjects) [ms] | >30-60 ms inc, N (%) (Day 17, QTcI, healthy subjects) | >60 ms inc, N (%) (Day 17, QTcI, healthy subjects) | New >480 ms, N (%) (Day 17, QTcI, healthy subjects) | New >500 ms, N (%) (Day 17, QTcI, healthy subjects) | Mean change from baseline (QTcI) (Day 17, healthy subjects) [ms] | Mean change in baseline of the QT interval as compared to buprenorphine alone (naltrexone administered with buprenorphine) |
| --- | --- | --- | --- | --- | --- | --- | --- | --- | --- | --- | --- | --- | --- | --- | --- | --- | --- | --- | --- | --- |
| COc1c(N2C[C@@H]3CCCN[C@@H]3C2)c(F)cc2c(=O)c(C(=O)O)cn(C3CC3)c12 [Moxifloxacin] | 0 N (%) | 0 N (%) | 0 N (%) | as expected | – | – | – | – | – | – | – | – | – | – | – | – | – | – | – | – |
| O=C1CC[C@@]2(O)[C@H]3Cc4ccc(O)c5c4[C@@]2(CCN3CC2CC2)[C@H]1O5 [NTX, naltrexone] | – | – | – | – | 0 N (%) | 0 N (%) | 0 N (%) | 0 N (%) | 1.5 | 1 (2%) N (%) | 0 N (%) | 0 N (%) | 0 N (%) | -1.7 | 1 (2%) N (%) | 0 N (%) | 0 N (%) | 0 N (%) | -0.9 | reduced |
